Measured values as given in US10500164B2, “Nanoparticle-based combinatorial therapy” (The American University in Cairo, priority 2014, dated 2019).

Assay: In-vitro drug release of DOX in Tris-HCl buffer pH 5 and PBS pH 7.4
Assay type: physicochemical
Settings: free DOX solution control, over 4 hrs
Procedure: FIGS. 7A-B show according to an exemplary embodiment of the invention in-vitro release of free DOX, and DOX-NCs in Tris-HCl buffer pH 5 (FIG. 7A) and PBS pH 7.4 (FIG. 7B).
Since the release behavior of DOX-NCs at the desired site is of a great importance for formulating an ideal cancer-targeted drug delivery system, in-vitro release studies were performed at two different pH values were tested: pH 7.4, which mimics the pH of the blood stream and pH 5, which mimics the pH of the endosomes within cancer cells. In-vitro results […] that DOX-AgNCs, DOX-Ag/PVA NCs, DOX-Ag/PEG NCs and DOX-Ag/PVP NCs released 96.6%, 97.4%, 98% and 96.4% of DOX at pH 5. While at pH 7.4, the release percentages of DOX were 73.4%, 54.3%, 59.8% and 68.5% over the course of 6 hrs. […] In-vitro release is shown of free DOX, and DOX-NCs in Tris-HCl buffer pH 5 (FIG. 7A) and PBS pH 7.4 (FIG. 7B).

COc1cccc2c1C(=O)c1c(O)c3c(c(O)c1C2=O)C[C@@](O)(C(=O)CO)C[C@@H]3O[C@H]1C[C@H](N)[C@H](O)[C@H](C)O1 [free DOX, Doxorubicin]
release percentage of DOX (pH 5): 97.4% | release percentage of DOX (pH 7.4): 67.7%
